According to PubChem BioAssay AID812 (SRMLSC, 2007):
The source made the active and inactive calls. No rule for the calls is given here.

Test system: Saccharomyces cerevisiae lifespan extension, no nicotinamide
Assay: yeast lifespan extension without nicotinamide, confirmation, yeast lifespan extension project, S. cerevisiae (AID 812);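 also: growth read as optical density after 42 hours of incubation at 30C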

Row | Structure (SMILES) | EC50
1 | O=C1/C(=N/n2cnnc2)c2ccccc2N1Cc1ccccc1 | > 40 µM (inactive)
2 | CN(C)C=C1C(=O)N(C2CCCCC2)C(=O)N(C2CCCCC2)C1=O | > 40 µM (inactive)
3 | CN1CCN(C(=S)Nc2cc([N+](=O)[O-])ccc2Cl)CC1 | > 40 µM (inactive)
4 | O=C(O)c1ccc(O)c(N2C(=O)Nc3ccccc3N2O)c1 | > 40 µM (inactive)
5 | CCn1cc(C(=O)O)c(=O)c2ccc(C)nc21 | > 40 µM (inactive)
6 | O=S(=O)(ON(c1ccccc1)S(=O)(=O)c1ccccc1)c1ccccc1 | > 40 µM (inactive)
7 | O=C1Nc2ccccc2C12OCC1(CO2)COC2(OC1)C(=O)Nc1ccccc12 (centres undefined) | > 40 µM (inactive)
8 | CS(=O)(=O)Oc1ccc(Br)cc1/C=C1/N=C(c2ccco2)OC1=O | > 40 µM (inactive)
9 | C=CCn1c(C)cc(C(=O)COc2ncnc3sccc23)c1C | > 40 µM (inactive)
10 | Cc1cc(C(=O)CN2C(=O)NC(C)(CC(C)C)C2=O)c(C)n1-c1ccc2c(c1)OCO2 (centres undefined) | > 40 µM (inactive)
11 | COc1ccccc1CN(Cc1nc2ccccc2c(=O)[nH]1)C(=O)Nc1cccc(C)c1 | > 40 µM (inactive)
12 | CN(C)C1(c2nnnn2CCOC(=O)Nc2ccc(Cl)cc2)CCCCC1 | > 40 µM (inactive)
13 | Cc1ccc(S(=O)(=O)N[C@@H](Cc2ccccc2)C(=O)CCl)cc1 | > 40 µM (inactive)
14 | N#Cc1ccc(-c2ccc(OCC(=O)NCCc3ccccc3)cc2)cc1 | > 40 µM (inactive)
15 | CCC1CCCCN1S(=O)(=O)c1ccc(S(=O)(=O)N(Cc2cccs2)C2CC2)cc1 (centres undefined) | > 40 µM (inactive)
16 | Cc1ccc(C)c(N2CCN(S(=O)(=O)c3c(C)noc3/C=C/N(C)C)CC2)c1 | > 40 µM (inactive)
17 | CCCCC(c1nnnn1CC1CCCO1)N1CCN(c2nc3ccccc3s2)CC1 (centres undefined) | > 40 µM (inactive)
18 | COc1ccc(C(=O)C(CN2CCOCC2)c2ccccc2)cc1 (centres undefined) | > 40 µM (inactive)
19 | O=C(CCN1CCCCCC1)Nc1ccc(F)cc1 | > 40 µM (inactive)
20 | CCn1c(/N=C/c2ccccc2NS(=O)(=O)c2ccc(C)cc2)nc2ccccc21 | > 40 µM (inactive)
21 | CCc1nnc(NC(=O)c2cccc(S(=O)(=O)N(C)c3ccccc3)c2)s1 | > 40 µM (inactive)
22 | Cc1ccc(C(=O)C2C(=O)c3ccccc3C2=O)cc1 | > 40 µM (inactive)
23 | CCCCCSc1nc2c(c(=O)[nH]c(=O)n2C)n1C | > 40 µM (inactive)
24 | COc1ccc(CNC(=O)C2CCN(c3nc(OC)nc(OC)n3)CC2)cc1 | > 40 µM (inactive)
25 | CC[n+]1c(/C=C2\C=C(C)CC(C)(C)C2)sc2ccccc21 | > 40 µM (inactive)

Row | Structure (SMILES) | EC50
26 | CC1(C)CC(=O)C2=C(C1)OC1=C(C(=O)CC(C)(C)C1)C2c1ccc(O)cc1O | > 40 µM (inactive)
27 | O=C(NCCc1ccccn1)C(F)(F)C(F)(F)C(F)(F)C(F)(F)C(F)(F)C(F)(F)C(F)(F)C(F)F | > 40 µM (inactive)
28 | O=C(COc1ccc([N+](=O)[O-])cc1)N(Cc1ccccc1)Cc1ccccc1 | > 40 µM (inactive)
29 | Cc1cc(C)c(S(=O)(=O)c2ccccc2)c(OC(=O)c2cc(F)c(F)cc2Cl)n1 | > 40 µM (inactive)
30 | COCCCNc1c2c3c(cccc3[nH]c1=O)C(=O)c1ccccc1-2 | > 40 µM (inactive)
31 | C[C@]12CC[C@@H](O)C[C@@H]1CC[C@@H]1[C@@H]2CC[C@]2(C)[C@@H](O)CC[C@@H]12 | > 40 µM (inactive)
32 | CCC(=NCCc1c(C)[nH]c2ccc(C)cc12)C1=C(O)CC(c2ccccc2)CC1=O (centres undefined) | > 40 µM (inactive)
33 | CN1C(=O)NC(c2ccc(O)cc2)C(C(=O)c2cccs2)C1(O)C(F)(F)F (centres undefined) | > 40 µM (inactive)
34 | Cc1cc(NS(=O)(=O)c2ccc(CC(C)C)cc2)no1 | > 40 µM (inactive)
35 | Cc1ccccc1OC(=O)n1c(=S)oc2cc(Cl)ccc21 | > 40 µM (inactive)
36 | Cc1ccc(N(C)C(=O)Oc2ccc(C(=O)c3ccc(Cl)cc3)cc2)cc1 | > 40 µM (inactive)
37 | CCOC(=O)CSC1=NC(=O)/C(=C/c2ccc(OC)cc2)S1 | > 40 µM (inactive)
38 | COc1ccc(-c2noc(CSc3nnc(-c4ccncc4)n3-c3ccc(F)cc3)n2)cc1OC | > 40 µM (inactive)
39 | CCCc1nc2c(c(=O)c3ccccc3n2C)c(=O)n1C1CCCCCC1 | > 40 µM (inactive)
40 | CCOC(=O)C1C(c2cccs2)NC(=O)N(C)C1(O)C(F)(F)F (centres undefined) | > 40 µM (inactive)
41 | N#Cc1c(-c2ccccc2)c(-c2ccccc2)nn(CC(=O)NNC(=O)Nc2ccccc2)c1=O | > 40 µM (inactive)
42 | COC(=O)c1sc2ncn(-n3c(C)ccc3C)c(=O)c2c1C | > 40 µM (inactive)
43 | CCOC(=O)c1[nH]nc(C(=O)c2ccc(Br)cc2)c1O | > 40 µM (inactive)
44 | O=[N+]([O-])c1c(C(Cl)Cl)nn(-c2ccccc2)c1N1CCCC1 | > 40 µM (inactive)
45 | CC(C)(C)C(=O)Cn1c(=N)n(Cc2ccccc2)c2ccccc21 | > 40 µM (inactive)
46 | CCCCCC(=O)N1CCN(CCN=CC2=C(O)CC(c3ccc(OC)c(OC)c3)CC2=O)CC1 (centres undefined) | > 40 µM (inactive)
47 | CCn1c(=O)c2c(O)cc(=O)oc2c2ccccc21 | > 40 µM (inactive)
48 | O=C1c2ccccc2C(=O)N1Cc1nc2ccccc2c(=O)n1-c1ccc(Br)cn1 | > 40 µM (inactive)
49 | O=C1CC(c2ccc(F)cc2)CC(O)=C1C=NCCN1CCN(C(=O)Nc2ccccc2)CC1 (centres undefined) | > 40 µM (inactive)
50 | CCCCSc1[nH]c(=O)c(C(=O)OCC)cc1C#N | > 40 µM (inactive)

Row | Structure (SMILES) | EC50
51 | CC(=O)Oc1ccccc1N1C(=O)c2ccc(C(=O)O)cc2C1=O | > 40 µM (inactive)
52 | C=C1C(=O)C=C2CN(C(=O)c3ccccc3)[C@@](Cc3ccc(F)cc3)(C(=O)OC)[C@@H]12 | > 40 µM (inactive)
53 | Cc1ccnc(SCc2cc(=O)c(OC(=O)c3ccco3)co2)n1 | > 40 µM (inactive)
54 | CS(=O)(=O)c1nc(-c2ccco2)cc(C(F)(F)F)n1 | > 40 µM (inactive)
55 | O=C(NCc1ccc(Cl)cc1)c1ccccc1CCc1ccccc1 | > 40 µM (inactive)
56 | CCOc1ccc(OCC(=O)c2c(O)c3ccccc3oc2=O)cc1 | > 40 µM (inactive)
57 | CNC(=O)/C(C#N)=C/c1c(F)cccc1Cl | > 40 µM (inactive)
58 | Cc1ccc(N/C(C(Cl)=C(Cl)Cl)=C(/Cl)[N+](=O)[O-])c(C)c1 | > 40 µM (inactive)
59 | O=C(c1c[nH]c(C(=O)C(Cl)(Cl)Cl)c1)c1ccccc1Cl | 7.18 µM
60 | CC1Cc2ccccc2N1C(=O)Cn1cnc2ccccc2c1=O (centres undefined) | > 40 µM (inactive)
61 | CCCCSc1nc(O)c(C2OC(=O)c3c2ccc(OC)c3OC)c(=O)n1C (centres undefined) | > 40 µM (inactive)
62 | O=C(/C=C(\O)c1ccc(Cl)cc1)C(=O)NNC(=O)C(O)(c1ccccc1)c1ccccc1 | > 40 µM (inactive)
63 | O=C1c2ccccc2-c2onc3c(Oc4ccccc4)cc(O)c1c23 | > 40 µM (inactive)
64 | CCCCCCCC(=O)N/N=C(/C)c1c(O)cc(C)oc1=O | > 40 µM (inactive)
65 | COc1ccc(NCc2nc3ccccc3n2CCOc2ccccc2)cc1 | > 40 µM (inactive)
66 | CCc1cc2c(=O)c(Oc3ccccc3)c(C)oc2cc1O | > 40 µM (inactive)
67 | Cc1ccccc1NC(=O)c1ccccc1 | > 40 µM (inactive)
68 | CCCC(=Nc1ccc(N)cc1)C1=C(O)C(C(=O)OC)C(C)(C)CC1=O (centres undefined) | > 40 µM (inactive)
69 | Cc1cc(C2C(C#N)=C(N)Oc3n[nH]c(C)c32)c(C)s1 (centres undefined) | > 40 µM (inactive)
70 | CCCCOC(=O)n1c(=O)oc2cc(S(=O)(=O)N3CCCCC3)ccc21 | > 40 µM (inactive)
71 | CCOC(=O)c1c(C)oc2c1c(C(c1cccnc1)N1CCOCC1)c(O)c1ccccc12 (centres undefined) | > 40 µM (inactive)
72 | COc1ccccc1CNC(=O)C(CCSC)NS(=O)(=O)c1ccc2c(c1)oc(=O)n2C (centres undefined) | > 40 µM (inactive)
73 | CC(C)c1ccc(C2=C(O)c3ccccc3C(=O)C2=O)cc1 | > 40 µM (inactive)
74 | O=C(CCc1ccccc1)NCCCN1CCOCC1 | > 40 µM (inactive)
75 | O=C(NCc1ccco1)c1c(O)c2cccc3c2n(c1=O)CCC3 | > 40 µM (inactive)

Row | Structure (SMILES) | EC50
76 | O=c1cc(-c2ccccc2Cl)oc2ccc([N+](=O)[O-])c(O)c12 | > 40 µM (inactive)
77 | CCOC(=O)C(=Cc1ccc(F)cc1)C(=O)OCC | > 40 µM (inactive)
78 | COc1ccc(N(C(=O)C(C)C)S(=O)(=O)c2ccc(Cl)cc2)cc1 | > 40 µM (inactive)
79 | COc1ccc2c(=O)c3c(=O)n(Cc4ccco4)c(-c4ccco4)nc3oc2c1 | > 40 µM (inactive)
80 | CCCn1c(C)cc(C(=O)COc2ncnc3sccc23)c1C | > 40 µM (inactive)
81 | O=C1c2ccccc2C(Nc2ccc3c(c2)OCCO3)N1c1ccccn1 (centres undefined) | > 40 µM (inactive)
82 | COc1ccc(C2CC23N=C(c2ccccc2)OC3=O)cc1 (centres undefined) | > 40 µM (inactive)
83 | Cc1cc(N=Cc2c(O)ccc3ccccc23)no1 | > 40 µM (inactive)
84 | CC(C)c1noc2ncc(C(=O)c3cc(Cl)cc(Cl)c3O)cc12 | > 40 µM (inactive)
85 | CNC(=S)NC1CC2CCCC(C1)N2Cc1ccco1 (centres undefined) | > 40 µM (inactive)
86 | CCCNC(=O)CCC(NS(=O)(=O)c1ccc(C)cc1)C(=O)NCCC (centres undefined) | > 40 µM (inactive)
87 | O=C(CSc1nc2ccccc2o1)c1cc2ccccc2oc1=O | > 40 µM (inactive)
88 | CCOc1ccc(/C=C/C(=O)c2c(O)c3ccccc3oc2=O)cc1 | > 40 µM (inactive)
89 | COc1cccc(CSc2nc3ccccc3cc2C=O)c1 | > 40 µM (inactive)
90 | CC(C)=C1C(=O)NN(c2ccc(C)c(Cl)c2)C1=O | > 40 µM (inactive)
91 | O=C(c1ccccc1)c1nc2ccccc2[nH]c1=O | > 40 µM (inactive)
92 | CC1CCCCN1C(=S)Nc1ccc2nc3n(c(=O)c2c1)CCCCC3 (centres undefined) | > 40 µM (inactive)
93 | Cc1cc(C)nc(SCc2cc(=O)c(OC(=O)c3ccco3)co2)n1 | > 40 µM (inactive)
94 | CCc1nc(SCC(=O)c2ccc3c(c2)OCCO3)c2ccccc2n1 | 19.1 µM
95 | CCOC(=O)c1ccc2c(c1)n(CCO)c(C)[n+]2CC | > 40 µM (inactive)
96 | O=C(NC(=S)Nc1nc2c(s1)CSc1ccccc1-2)c1ccccc1 | > 40 µM (inactive)
97 | Cc1ccc2nc(-c3ccc(NC(=O)CSc4ccccc4)cc3)[nH]c2c1 | > 40 µM (inactive)
98 | c1ccc(-c2c(-c3ccccc3)n(Cc3ccco3)c3ncnc(NCCCn4ccnc4)c23)cc1 | > 40 µM (inactive)
99 | CCSc1nnc(NC(=O)C2(C)Cc3ccccc3C(=O)O2)s1 (centres undefined) | > 40 µM (inactive)
